Source: patent US12595517B2, “Method to treat and stratify a patient suffering from a cancer” (INSERM (INSTITUT NATIONAL DE LA SANTÉ ET DE LA RECHERCHE …, priority 2020, dated 2026)

Legend:
3′UTR/Bim plasmid = assay: Luciferase 3'UTR reporter assay; assay type: cell-based, human; settings: A172
Description: Cells were seeded in 24-well plates and were transfected with the indicated firefly luciferase constructs together with an SV40-renilla control vector. Lysates were prepared at […], and luciferase activity was measured using the Dual Luciferase Reporter Assay system (Promega, France) and a luminometer (MicroLumat Plus, EG&G Berthold, France).

Bim = Bim expression (in-cell ELISA, RT-qPCR) in A172 cells; assay type: cell-based, human
Description: In cell ELISA were performed using the Bim Colorimetric Cell-Based ELISA kit (Aviva Systems Biology, France) according to the manufacturer's instructions. Briefly, 5 000 cells were seeded in 96-well plate to be exposed or not to indicated exosome or miRNA. After that, cells were treated with a fixing solution (4% of paraformaldehyde solution) for 10 min at room temperature. Primary antibody was incubated overnight at 4° C. Adequate HRP-conjugated secondary antibodies were incubated for 1 hour at room temperature. Detection was performed at 450 nm.
After washes, cells in each well were incubated with crystal violet solution for 5 min at room temperature, according to the manufacturer's instructions. Absorbance was read at 595 nm, and used to normalize the “Bim signal”.
RNA extract is performed using RNeasy Mini QIAcube Kit and QIAcube (Qiagen, France). RT-qPCRs are performed using QuantiTect Reverse Transcription Kit, Rotor-Gene SYBR Green PCR Kit, QuantiTect Primer Assays and Rotor-Gene Q as real-time thermocycler (Qiagen, France). Reference gene RPLPO was used, with the 2-ΔΔCt relative quantification method.

A549-induced tumors = assay: A549-inoculated xenograft mice, tumor volume; assay type: in vivo
Description: The experimental procedures using animals were in accordance with Institutional Animal Care guidelines and the French National Committee of Ethics. In addition, all experiments were conducted according to the Regulations for Animal Experimentation at the “Plate-forme […] the “Institut de Recherche en Santé de l'Université de Nantes (IRS-15N)” and approved by the French National Committee of Ethics. Cultured A549 cells were harvested by trypsinization, washed and resuspended in saline buffer. Cell suspensions were injected subcutaneously (s.c.) into the flanks of 7-/8-week-old mice (Janvier, France). Tumor volume based on caliper measurements was calculated using the modified ellipsoidal formula (Tumor volume=1⁄2(length×width2)).

[1] = system: A549 (a lung cancer cell line); assay: Chemotherapy-induced cell death, PARP and Caspase-3 cleavage in A549; assay type: cell-based, human; settings: A549 exposed to Exo/αPD1; CIS 5 μM, ABT263 15 μM
Description: Colorimetric Cell Cytotoxicity Assay Kit (Abcam, France) was used to estimate the cell viability. Briefly, cells were seeded in 96-well plate. After the realization of manufacturer's instruction, absorbance was read at 570 and 605 nm using Victor™x3 spectrophotometer (Perkin-Elmer, France).
Levels of cleaved caspase-3 and cleaved PARP are considered as both biomarkers of apoptosis. The measurement of these two parameters was performed using the Human Cleaved PARP1 and Human Cleaved Caspase-3 ELISA Kits (Abcam, France) according to the manufacturer's protocol.
In view of the data described above, associating the ineffectiveness of cisplatin+αPD1 therapy with exomiR-4315-induced Bim down-expression, we then studied the effect of a “Bim/BH3 mimetic drug” such as ABT263 on the resistance to cisplatin of A549 cells exposed to Exo/αPD1. A549 lung cancer cells were then exposed to Exo/αPD1 and Exo prior to the addition of cisplatin (CIS, 5 μM) and/or ABT263 (15 μM). ABT263 abrogated the Exo/αPD1-induced resistance to CIS (FIG. 4A).

“5′CCGCUUUCUGAGCUGGAC (miScript mimic, further chemistry not given here) [mimic miR-4315, Syn-hsa-miR-4315 miScript miRNA Mimic]” was tested. Which “luciferase activity associated with the 3′UTR/Bim plasmid” value (3′UTR/Bim plasmid) did it give?
Its value is “decreased”.

What about the “Bim expression (protein and mRNA levels)” value (Bim) of the same compound?
The value was “down-regulated”.

What does the source list for CC1(C)CCC(c2ccc(Cl)cc2)=C(CN2CCN(c3ccc(C(=O)NS(=O)(=O)c4ccc(N[C@H](CCN5CCOCC5)CSc5ccccc5)c(S(=O)(=O)C(F)(F)F)c4)cc3)CC2)C1 [ABT263, navitoclax]?
deleterious effect of Exo/αPD1 on the CIS-resistance of cancer cells (A549-induced tumors; A549 xenograft mice): suppressed; Exo/αPD1-induced resistance to CIS [1]: abrogated

How did the “volume of A549-induced tumors” value (A549-induced tumors; xenograft mice) turn out when N.N.[Cl][Pt][Cl] [CIS, cisplatin] was run?
The value was “decreased”.
